Measured values reported in patent US6387406B1, “Copolymer compositions for oral delivery” (Supratek Pharma Inc., priority 1992, dated 2002).
Values after ≈ are worked out from the molar mass of the structure shown. Like-named read-outs stand apart in the source and are kept apart here.

Tests used:
[1] = test system: DBA/2 mice
[2] = test system: SKOV3 line of transformed cells (SK cells); assay: Cytotoxicity on SK cells; type: cell-based, human; settings: free drug
[3] = test system: SKVLB cell line (SK-resistant cells); assay: XTT cytotoxicity on SK-resistant cells; type: cell-based, human; settings: for IC50: Homo sapiens
[4] = test system: glucose level in plasma; assay: Insulin-induced hypoglycemia, s.c. or p.o.; type: in vivo, Balb/c mice
Protocol: Hypoglycemia induced by high doses of insulin in mice was used as biological response criteria. The drug activity was evaluated by analyzing the glucose level in plasma versus time following drug administration. Isotonic solutions of free insulin (Ins) or insulin formulated with POE-POP block copolymer (“SP1-Ins”) were given to Balb/c mice at the same doses either s.c. or p.o.
Female six-week-old Balb/c mice (six animals per time point) were administered s.c. or p.o. with sterile 100 μl per 20 g of body weight (5 ml/kg) of Insulin or SP1-Insulin solutions, and the same volumes of isotonic solution were given to the control group of animals. Both Insulin and SP1-Insulin injections contained 0.02 mg/ml of insulin with activity of 27.3 μ/mg.
The animals were sacrificed after various time intervals (0.5-6 hr; post-administration), plasma samples were collected, and glucose levels were analyzed by standard glucosoxidase-peroxidase method. The statistical significance was analyzed by the multiple range text of Duncan-Kramer.

[5] = test system: BALB/c male mice; settings: mouse, in vivo, ip
[6] = test system: DBA/2 mice; settings: ±S.D.
[7] = test system: neuroleptic effect as monitored behaviorally; assay: Minimum neuroleptic dose (MND); type: in vivo; settings: control preparation
Protocol: The minimum neuroleptic dose (MND) was determined for each preparation. The minimum neuroleptic dose is defined as the minimum dose that caused a neuroleptic effect as monitored behaviorally. See, Kabanov et al., FEBS Lett. 258: 343-345, 1989. The MND for the copolymer-containing preparation was 0.02 mg/kg, while that of the control preparation was 2 mg/kg. The ratio of LD95/MND was 50 for the copolymer preparation and 5 for the control preparation.

[8] = control preparation, solution in RPMI 1640
[9] = Example 10: 10% of LD95 i.p., stearoylated insulin-targeted micelles vs free drug

## CCN1CCCC1CNC(=O)c1cc(S(N)(=O)=O)ccc1OC (stereo not shown) [Sulpiride]
[1]; [8]
  LD95: 100 mg/kg body weight

## CO[C@@]12[C@H](COC(N)=O)C3=C(C(=O)C(C)=C(N)C3=O)N1C[C@@H]1N[C@@H]12 [mitomycin C]
[2]
  IC50 against SK cells: 0.320 µg/mL (≈ 0.957 µM)
[3]; free drug
  IC50 against SK-resistant cells: 1.120 µg/mL (≈ 3.35 µM)

## Insulin
[4]; p.o., in words
  changes in plasma glucose level: only minor changes
[4]; s.c.
  time to return to the normal glucose level: about 6 hours
[4]; s.c., 3 hours after administration
  glucose level in plasma: about 15 % of the normal level

## Pluronic P85
[5]
  MTD: 0.2 g/kg

## O=C(CCCN1CCC(O)(c2ccc(Cl)cc2)CC1)c1ccc(F)cc1 [haloperidol]
[6]; Example 7: 10% of LD95 i.p., antibody-targeted micelles vs free drug
  Horizontal mobility: 204.6 ± 24%
[6]; [9]
  Grooming: 1656.4 ± 6.5%
  Horizontal mobility: 180.1 ± 26%
[1]; i.p., without the Pluronic vehicle
  LD95: 75 mg/kg

## CN(Cc1cnc2nc(N)nc(N)c2n1)c1ccc(C(=O)N[C@@H](CCC(=O)O)C(=O)O)cc1 [methotrexate]
[3]; free drug, read-out: IC50 against SK-resistant cells
  IC50: 1.34 µg/mL (≈ 2.95 µM)

## COc1cccc2c1C(=O)c1c(O)c3c(c(O)c1C2=O)C[C@@](O)(C(=O)CO)C[C@@H]3O[C@H]1C[C@H](N)[C@H](O)[C@H](C)O1 [Free doxorubicin, doxorubicin]
[3]
  IC50: 60 µg/mL (≈ 110 µM)

## CN1CCN(CCCN2c3ccccc3Sc3ccc(C(F)(F)F)cc32)CC1 [Trifluorperazine]
[7]
  minimum neuroleptic dose (MND): 2 mg/kg
  ratio of LD95/MND: 5
[1]; [8]
  LD95: 10 mg/kg body weight
